Measured values: patent US9629869B2, “Application of fructus schisandrae total polysaccharides in preparatoin of medicine or nutraceuticals used for treating coughing” (priority 2014, dated 2017)

Columns and labels:
Type in all cases: in vivo, guinea pig
[1] = system: BALF inflammatory cells of guinea pigs with increased cough sensitivity induced by cigarette smoke; assay: Total number and classification of BALF inflammatory cells, cigarette smoke guinea pigs (Embodiment I); conditions: codeine group 30 mg/kg oral once, n = 7-10
Procedure: 1.1 Smoking method: prior to the experiment, after being adaptively raised quietly for one week, the guinea pigs are placed in a self-made cigarette poisoning box; ten cigarettes are fired every time and placed in a smoking trough (flume-cured tobacco type, content of tar is 12 mg, content of nicotine in smoke is 1.1 mg, and content of carbon oxide in the smoke is 15 mg); and the cigarette smoke is led into the poisoning box by three-way valve, and the timing is started after the cigarette is burnt out. The guinea pigs are smoked for 20 minutes every time and twice a day; and the smoking interval time between two adjacent smoking is greater than 6 h; and the guinea pigs are consecutively smoked for 14 days.
The guinea pigs are randomly divided into a normal group, a model group, a solvent reference group (0.5% PEG400), a codeine group, a water extract high dose group (dose: 500 mg/kg guinea pig/day: drug concentration: […]), a total polysaccharides high dose group (dose: 500 mg/kg guinea pig/day; drug concentration: 50 mg/mL), a total polysaccharides middle dose group (dose: 250 mg/kg guinea pig/day; drug concentration: 25 mg/mL) and a total polysaccharides low dose group (dose: 125 mg/kg guinea pig/day, drug concentration: 12.5 mg/mL).
Except for the normal group, animals in other groups are respectively stimulated by adopting the smoking method described in the above 1.1. Except for the normal group and the codeine group, the guinea pigs in the other groups are orally given with the corresponding drugs or solvent two hours before the second smoking for 14 consecutive days from the first day of smoking. The guinea pigs of the codeine group is orally administrated (30 mg/kg guinea pig; the codeine concentration: 3 mg/mL) one hour before the citric acid cough sensitivity check. The guinea pigs of the normal group are normally raised without any treatment. The guinea pigs are placed in a plethysmogrophy box at the 15th day; two minutes later, 0.4 mol/L citric acid aqueous solution is atomized to perform the cough stimulation, and the atomizing is ended in 10 minutes; the guinea pigs are continuously observed for 10 minutes; and the coughing times and coughing latent period of the guinea pigs in 20 minutes after the atomizing is started are recorded.
Intraperitoneal injection with 3% pentobarbital sodium solution (1 mL/kg) is performed to anesthetize the animal in 24 hours after the cough stimulation test, and 10 mL of blood is taken from the heart of the animal. The bronchoalveolar lavage fluid (BALF) is obtained by taking 6 mL of 0.1 mol/L pre-cooled PBS buffer solution, performing the bronchoalveolar lavage for three times, and uniformly lavaging the left lung repeatedly for three times. […]

[2] = system: acute cough guinea pigs induced by citric acid smoke; assay: Acute cough of guinea pigs induced by citric acid smoke, five days of dosing (Embodiment II); conditions: 30 mg/kg oral once, one hour before stimulation at fifth day, x ± s, n = 8
Procedure: After the guinea pigs are quietly raised for one week, the cough sensitivity screening is carried out: the guinea pigs is stimulated for one minute by atomizing 0.8 mol/L citric acid and continuously observed for five minutes; the coughing times of the guinea pigs in 6 minutes after the atomizing is started is recorded; and the guinea pigs with the coughing times greater than 10 times and less than 50 times are the qualified guinea pigs. […]
Except for the normal group and the codeine group, the guinea pigs in the rest groups are orally given with drugs or solvent consecutively for five days and once a day; and the citric acid cough stimulation is carried out in one hour after the guinea pigs are given with the drug or solvent at the fifth day: the guinea pigs are stimulated for one minute by atomizing 0.8 mol/L citric acid and are continuously observed for 5 minutes after the atomizing is stopped, and the coughing times of the guinea pigs in 6 minutes after the atomizing is started is recorded. […]

[3] = system: guinea pigs with increased cough sensitivity induced by cigarette smoke; assay: Citric acid cough stimulation of guinea pigs with increased cough sensitivity induced by cigarette smoke (Embodiment I); conditions: 30 mg/kg oral once, one hour before citric acid check, x ± s, n = 7-10
Procedure: Experimental animals used in the specific embodiments are ordinary male pure white Hartly guinea pigs each with a weight of 300±50 g which are supplied by the Laboratory Animal Center of Guangdong Province (SCXK (Guang) 2008-0002). The guinea pigs are raised in a relatively clean and quiet environment with constant temperature (23±3° C.) and constant humidity (55±15%); the diurnal cycle is 12:12 h/day; and the guinea pigs are raised in different cages, and every five guinea pigs are raised in one cage and can obtain food and water freely. […]
Except for the normal group, animals in other groups are respectively stimulated by adopting the smoking method described in the above 1.1. […] The guinea pigs are placed in a plethysmogrophy box at the 15th day; two minutes later, 0.4 mol/L citric acid aqueous solution is atomized to perform the cough stimulation, and the atomizing is ended in 10 minutes; the guinea pigs are continuously observed for 10 minutes; and the coughing times and coughing latent period of the guinea pigs in 20 minutes after the atomizing is started are recorded.

[4] = system: citric acid smoke stimulation-caused guinea pigs; assay: Coughing times of citric acid smoke stimulated guinea pigs at different time points after one dose (Embodiment III); conditions: 5 hours after one oral dose of 30 mg/kg; FIG. 2
Procedure: After the guinea pigs are quietly raised for one week, the cough sensitivity is screened: the guinea pigs are stimulated for one minute by atomizing 0.8 mol/L citric acid and continuously observed for five minutes after the atomizing is stopped; the coughing times of the guinea pigs in 6 minutes after the atomization is started is recorded; and the guinea pigs with the coughing times greater than 10 times and less than 50 times are the qualified guinea pigs.
The qualified guinea pigs are selected to be normally raised for three days and randomly divided into four groups with 30 guinea pigs in each group. The guinea pigs in the first group are divided into three subgroups with 10 guinea pigs in each subgroup, and all guinea pigs are directly under the citric acid cough stimulation: the guinea pigs are stimulated for one minute by atomizing 0.8 mol/L citric acid and are continuously observed for 5 minutes after the atomization is stopped, and the coughing times of the guinea pigs in 6 minutes after the atomization is started is recorded. […]

COc1ccc2c3c1O[C@H]1[C@@H](O)C=C[C@H]4[C@@H](C2)N(C)CC[C@@]341 [Codeine]
Eos % ([1]; BALF eosinophils, mean): 4.25%
Lym % ([1]; BALF lymphocytes, mean): 3.64%
Mac % ([1]; BALF macrophages, mean): 43.86%
Neu % ([1]; BALF neutrophils, mean): 48.10%
total number of cells * 10^6/mL ([1]; BALF, x ± s): 2.13 ± 0.38 10^6/mL
Coughing times ([2]; 0.8 mol/L citric acid, 6 min count): 3.83 ± 1.94
Coughing latent period [2]: 115.3 ± 20.18 s
Coughing times ([3]; 0.4 mol/L citric acid, day 15, 20 min count): 37.29 ± 11.64
Coughing latent period ([3]; day 15): 186.14 ± 45.27 s
coughing times compared with the normal group [4]: no significant difference
